Usually Ki stands for the equilibrium dissociation constant of an inhibitor or competing ligand from its target. A higher Ki goes with weaker binding.

This assay has as its target T1, MASP-2 (CCP1-CCP2-SP) (Homo sapiens, UniProt O00187).
T1 construct: 15 μL of Enzyme MASP-2 (CCP1-CCP2-SP) in Assay Buffer
Briefly: Enzymatic Assay for MASP-2 (fluorogenic substrate). It is filed as biochemical. The settings on record: fluorogenic substrate based on C2 cleavage site; room temperature, 20 min; 20 mM HEPES pH 7.4, 140 mM NaCl, 0.1% Tween 20. An outline of the steps:
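Fluorogenic substrate built on the C2 cleavage site, in 20 mM HEPES pH 7.4, 140 mM NaCl, 0.1% Tween 20, run at room temperature for 20 min before an acetic acid stop. Fluorescence normalised to DMSO-only and no-enzyme controls; IC50 taken as equivalent to Ki, with tight- or slow-binding inhibitors treated separately.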

Counter-ions that a name gives are not always drawn. A value given as a limit tells only on which side of the number the result lay.

T1 sequence (O00187 445-686 limits assumed): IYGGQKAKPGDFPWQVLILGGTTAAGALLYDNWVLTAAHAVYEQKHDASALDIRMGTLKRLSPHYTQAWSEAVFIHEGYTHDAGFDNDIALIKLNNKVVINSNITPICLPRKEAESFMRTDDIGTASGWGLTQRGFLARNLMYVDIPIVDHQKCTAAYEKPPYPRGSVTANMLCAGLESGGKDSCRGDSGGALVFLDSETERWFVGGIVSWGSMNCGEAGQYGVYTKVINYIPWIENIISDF
T1 sequence (O00187 298-444 partner limits assumed): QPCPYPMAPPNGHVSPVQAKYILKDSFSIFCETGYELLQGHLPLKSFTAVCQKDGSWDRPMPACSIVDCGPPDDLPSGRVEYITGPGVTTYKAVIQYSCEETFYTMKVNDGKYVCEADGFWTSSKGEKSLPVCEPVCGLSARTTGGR

Consider `C[C@H](NC(=O)[C@H]1C[C@H](Oc2ccccc2)CN1)C(=O)NCc1ccc(C(=N)N)cc1` [Compound I-96, (2R,4S)—N—((S)-1-((4-Carbamimidoylbenzyl)amino)-1-oxopropan-2-yl)-4-phenoxypyrrolidine-2-carboxamide di-trifluoroacetate], for which the Ki is < 500 nM.
With `C[C@H](NC(=O)[C@H]1C[C@H](Oc2ccccc2)CN1)C(=O)NCc1cc2cnccc2[nH]1` [Compound I-97, (2R,4S)—N—((S)-1-(((1H-Pyrrolo[3,2-c]pyridin-2-yl)methyl)amino)-1-oxopropan-2-yl)-4-phenoxypyrrolidine-2-carboxamide di-trifluoroacetate] the figure was < 500 nM.
With `C[C@H](NC(=O)[C@H]1C[C@@H](c2ccccc2)CCN1)C(=O)NCc1cc2c(s1)CNC2` [Compound I-98, (2R,4S)—N—((S)-1-(((5,6-Dihydro-4H-Thieno[2,3-C]Pyrrol-2-Yl)Methyl)Amino)-1-Oxopropan-2-Yl)-4-Phenylpiperidine-2-Carboxamide Di-Trifluoroacetate Salt] the figure was < 500 nM.
Then `C[C@H](NC(=O)[C@H]1C[C@H](Cc2ccccc2)CN1)C(=O)NCc1cc2c(s1)CNC2` [Compound I-99, (2R,4S)-4-Benzyl-N—((S)-1-(((5,6-Dihydro-4H-Thieno[2,3-C]Pyrrol-2-Yl)Methyl)Amino)-1-Oxopropan-2-Yl)Pyrrolidine-2-Carboxamide Di-Trifluoroacetate Salt], with < 500 nM.
Take `C[C@H](NC(=O)c1cc(Cc2ccc(-c3ccccc3)cc2)c[nH]1)C(=O)NCc1ccc(C(=N)N)cc1` [Compound I-100, (S)-4-([1,1′-Biphenyl]-4-ylmethyl)-N-(1-((4-carbamimidoylbenzyl)amino)-1-oxopropan-2-yl)-1H-pyrrole-2-carboxamide trifluoroacetate]: the inhibition constant (Ki) was < 500 nM.
`C[C@H](NC(=O)[C@H]1C[C@@H](c2ccc(-c3cccnc3)cc2)CCN1)C(=O)NCc1cc(Cl)ccc1-n1cnnn1` [Compound I-101, (2R,4S)—N—((S)-1-((5-chloro-2-(1H-tetrazol-1-yl)benzyl)amino)-1-oxopropan-2-yl)-4-(4-(pyridin-3-yl)phenyl)piperidine-2-carboxamide trifluoroacetate]: the inhibition constant Ki is < 500 nM.
With `C[C@H](NC(=O)[C@H]1C[C@@H](c2ccc(-c3ccccc3)cc2)CCN1)C(=O)NCc1cc(Cl)ccc1-n1cnnn1` [Compound I-102, (2R,4S)-4-([1,1′-Biphenyl]-4-yl)-N—((S)-1-((5-chloro-2-(1H-tetrazol-1-yl)benzyl)amino)-1-oxopropan-2-yl)piperidine-2-carboxamide trifluoroacetate] the figure was < 500 nM.
As to `O=C(NCc1cc(Cl)ccc1-n1cnnn1)[C@@H]1CCN1C(=O)[C@H]1C[C@@H](c2ccc(-c3ccccc3)cc2)CCN1` [Compound I-103, (S)-1-((2R,4S)-4-([1,1′-Biphenyl]-4-yl)piperidine-2-carbonyl)-N-(5-chloro-2-(1H-tetrazol-1-yl)benzyl)azetidine-2-carboxamide trifluoroacetate], the Ki was < 500 nM.
With `CCOC(=O)CCN1CC[C@H](c2ccccc2)C[C@@H]1C(=O)N[C@@H](C)C(=O)NCc1cc2cnccc2[nH]1` [Compound I-106, Ethyl 3-((2R,4S)-2-(((S)-1-(((1H-pyrrolo[3,2-c]pyridin-2-yl)methyl)amino)-1-oxopropan-2-yl)carbamoyl)-4-phenylpiperidin-1-yl)propanoate] the figure was < 500 nM; with `C[C@H](NC(=O)[C@H]1C[C@@H](c2ccccc2)CCN1CCC(=O)O)C(=O)NCc1cc2cnccc2[nH]1` [Compound I-107, 3-((2R,4S)-2-(((S)-1-(((1H-pyrrolo[3,2-c]pyridin-2-yl)methyl)amino)-1-oxopropan-2-yl)carbamoyl)-4-phenylpiperidin-1-yl)propanoic acid di-trifluoroacetate salt], < 500 nM.

Source of the values: US12486278B2, “MASP-2 inhibitors and methods of use” (Omeros Corporation, priority 2019, dated 2025).
